Among the test systems are TK-10 renal; PC-3 prostate; MOLT-4 leukemia; OVCAR-5 ovarian; OVCAR-8 ovarian; 786-0 renal; HCT-116 colon; DU-145 prostate; SK-MEL-5 melanoma; UO-31 renal; HL-60(TB) leukemia.
What all share (assay): DTP human tumour cell line panel, 48 h

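These data come from cells grown in 96-well plates and exposed to compound for 48 hours at five concentrations. TGI is the concentration that stops growth completely.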

Take `C[C@H](Nc1c(O)c2c(c(O)c1Cl)C(=O)C=CC2=O)C(=O)Nc1ccc([N+](=O)[O-])cc1`: the TGI in the test with TK-10 renal was 3.39 µM; in the test on PC-3 prostate, 8.89 µM; in the test on MOLT-4 leukemia, above 10 µM; in the test on OVCAR-5 ovarian it was 3.51 µM; with OVCAR-8 ovarian it was 5.54 µM; with 786-0 renal it was 3.23 µM. Moreover, the results for the TGI in the test on HCT-116 colon, in the test on DU-145 prostate and in the test on SK-MEL-5 melanoma were 2.7 µM, 3.22 µM and 3.14 µM, respectively.

As for `Nc1c(-c2nc3ccccc3s2)c2ccc([N+](=O)[O-])cc2c(=O)n1-c1cccc(C(=O)O)c1`, the TGI in the test with TK-10 renal is 52.3 µM; in the test on PC-3 prostate, above 100 µM; in the test with UO-31 renal, 71.8 µM; in the test on OVCAR-8 ovarian it was 68.6 µM; with 786-0 renal, above 100 µM; in the test on HCT-116 colon it was 45.1 µM. The figures for the concentration for total growth inhibition (TGI) in the test with DU-145 prostate, with SK-MEL-5 melanoma and in the test with HL-60(TB) leukemia were 64.7 µM, above 100 µM and 37.7 µM, respectively.

For `O=c1[nH]c(Nc2cccc(C(F)(F)F)c2)nc2nc[nH]c12`, the TGI in the test on TK-10 renal, in the test with PC-3 prostate, in the test on MOLT-4 leukemia, with OVCAR-5 ovarian, in the test on OVCAR-8 ovarian and with 786-0 renal was above 100 µM throughout. Besides, the TGI in the test with HCT-116 colon, in the test on DU-145 prostate, in the test with SK-MEL-5 melanoma and in the test on HL-60(TB) leukemia was above 100 µM throughout.

Consider `COC(=O)C1(Cc2ccc3c(c2)CCC3)Cc2ccc3c(c2C1O)CCC3` (stereo unspecified), for which the TGI in the test with TK-10 renal was 54.8 µM; with PC-3 prostate it was 32.3 µM; with MOLT-4 leukemia, above 100 µM; in the test on UO-31 renal it was 22.5 µM; in the test with OVCAR-8 ovarian, 39.1 µM; in the test with 786-0 renal, 28.6 µM. The TGI in the test on HCT-116 colon was 28.1 µM; in the test on DU-145 prostate, 46.4 µM; in the test on SK-MEL-5 melanoma, 22.1 µM; with HL-60(TB) leukemia, above 100 µM.

On to `CCCCCNc1nonc1N`, for which the TGI in the test with TK-10 renal, in the test with PC-3 prostate, with MOLT-4 leukemia, with UO-31 renal, with OVCAR-5 ovarian and with OVCAR-8 ovarian was above 100 µM in each case. The TGI in the test with 786-0 renal, in the test on HCT-116 colon, in the test with DU-145 prostate and in the test on SK-MEL-5 melanoma was above 100 µM in each case.

Turning to `Cc1cccc2c1Oc1cc(Cl)ccc1C2NC(=O)CCN1CCN(CCO)CC1` (stereo unspecified), the concentration for total growth inhibition (TGI) in the test on PC-3 prostate was 28.1 µM; in the test with MOLT-4 leukemia it was 38.9 µM; in the test on UO-31 renal it was 26.8 µM; in the test on OVCAR-5 ovarian, 40.9 µM; in the test with OVCAR-8 ovarian, 26.3 µM; with 786-0 renal, 26.5 µM. Moreover, the TGI in the test with HCT-116 colon was 34.6 µM; in the test with DU-145 prostate, 61.2 µM; with SK-MEL-5 melanoma, 27 µM; with HL-60(TB) leukemia, 39 µM.

In the case of `CC1CC[C@@]2(OC1)OC1C[C@H]3[C@@H]4C/C(=N\N(C)C)[C@@]5(O)CC(O)CC[C@]5(C)[C@H]4CC[C@]3(C)C1[C@@H]2C` (stereo partly specified), the TGI with TK-10 renal, with PC-3 prostate, with MOLT-4 leukemia, in the test on UO-31 renal, with OVCAR-5 ovarian and with 786-0 renal was above 100 µM throughout. The TGI in the test with HCT-116 colon was 76.1 µM; in the test with DU-145 prostate, above 100 µM; with SK-MEL-5 melanoma, above 100 µM; with HL-60(TB) leukemia it was 54.3 µM.

`CCOc1ccc(/C(O)=C/c2nc3ccccc3nc2/C=C(\O)c2ccc(OCC)cc2)cc1`: the TGI in the test on TK-10 renal, in the test on PC-3 prostate, in the test on MOLT-4 leukemia, in the test on UO-31 renal, in the test on OVCAR-5 ovarian and in the test on 786-0 renal was above 100 µM in each case. Moreover, the TGI in the test on HCT-116 colon, in the test with DU-145 prostate, with SK-MEL-5 melanoma and in the test with HL-60(TB) leukemia was above 100 µM throughout.

With `Cc1cn(C2CCC(/C=N\O)O2)c(=O)[nH]c1=O` (stereo unspecified), the TGI in the test with PC-3 prostate, in the test with MOLT-4 leukemia, in the test with UO-31 renal, with OVCAR-5 ovarian, with OVCAR-8 ovarian and in the test with 786-0 renal was above 100 µM each time. In addition, the concentration for total growth inhibition (TGI) in the test on HCT-116 colon, with DU-145 prostate and with SK-MEL-5 melanoma was above 100 µM each time.

With `O=C1CN2Cc3cc(N4CCOCC4)ccc3N=C2N1`, the TGI in the test with TK-10 renal, in the test with PC-3 prostate, with MOLT-4 leukemia, with UO-31 renal, in the test on OVCAR-5 ovarian and in the test with OVCAR-8 ovarian was above 100 µM throughout. The TGI in the test with HCT-116 colon, with DU-145 prostate, in the test with SK-MEL-5 melanoma and in the test with HL-60(TB) leukemia was above 100 µM throughout.

With `CON(C)C(C#N)=C(C#N)C#N`, the TGI in the test with TK-10 renal, with PC-3 prostate, with MOLT-4 leukemia, in the test on UO-31 renal, in the test with OVCAR-5 ovarian and with OVCAR-8 ovarian was above 10 µM each time. Further, the TGI with HCT-116 colon, in the test on DU-145 prostate, in the test on SK-MEL-5 melanoma and in the test on HL-60(TB) leukemia was above 10 µM in each case.

As for `CCCCn1c(C)c(C(=O)OCC)s/c1=N/Nc1nc2ccccc2nc1-c1ccccc1`, the TGI in the test on TK-10 renal, in the test on PC-3 prostate, in the test with MOLT-4 leukemia, in the test on OVCAR-5 ovarian, in the test on OVCAR-8 ovarian and in the test with 786-0 renal was above 100 µM each time. Moreover, the concentration for total growth inhibition (TGI) in the test with HCT-116 colon was above 100 µM; with DU-145 prostate, 94.1 µM; in the test with SK-MEL-5 melanoma it was above 100 µM; in the test on HL-60(TB) leukemia, above 100 µM.

For the molecule `CC1(C)N=C(C(N)=O)c2ncn(-c3ccccc3)c2N1`, the concentration for total growth inhibition (TGI) in the test with TK-10 renal, in the test with PC-3 prostate, with OVCAR-5 ovarian, in the test on OVCAR-8 ovarian, in the test on 786-0 renal and with HCT-116 colon was above 100 µM throughout. Further, the TGI in the test on DU-145 prostate, in the test on SK-MEL-5 melanoma and in the test on HL-60(TB) leukemia was above 100 µM in each case.

For `N#Cc1c(-c2ccc([N+](=O)[O-])cc2)cc(-c2ccc(Nc3ccnc4cc(C(F)(F)F)ccc34)cc2)nc1N`, the concentration for total growth inhibition (TGI) with TK-10 renal was above 69.8 µM; in the test with PC-3 prostate it was 56.9 µM; with MOLT-4 leukemia, 14.5 µM; in the test with UO-31 renal, 36.5 µM; with OVCAR-5 ovarian, above 73.8 µM; with OVCAR-8 ovarian, above 60.2 µM. For the same molecule, the total growth inhibition concentration (TGI) in the test on 786-0 renal is 15.6 µM; with HCT-116 colon it was 27.5 µM; in the test with DU-145 prostate, above 43.3 µM; in the test with SK-MEL-5 melanoma, above 83.3 µM.

The values are drawn from PubChem BioAssay (NCI).
